Assay results taken from US6451356B1, “Antibacterial composition comprising oenostacin from oenothera biennis” (Council of Scientific and Industrial Research, priority 2000, dated 2002).
Values after ≈ are worked out from the molar mass of the structure shown. Where two headings read alike, the source gives them in different places.

What was measured:
Assay type in all cases: cell-based
[1] = test system: Streptococcus mutans; experiment: MIC by two-fold broth dilution, S. mutans
Method: (§1) In order to identify the antibacterial chemical entities present in the EtOAc fraction 3 and 4 of O.biennis roots, the fractions are further run on silica gel column chromatography again eluting with varying proportions of chloroform and MeOH. Aliquots of eluate are run on TLC to check for the desired purity of the compound. The pure compounds thus obtained are analyzed for their antibacterial properties by two-fold broth dilution method to determine the minimal inhibitory concentration (MIC). […] The compounds CIM791 and 790 are identified as 3,5-dihydroxy-4-pent-4′-enoyl-1′-oxymethylbenzoic acid (Oenostacin) and gallic acid, respectively, using NMR spectral data.

[2] = test system: Staphylococcus epidermidis; experiment: MIC by two-fold broth dilution, S. epidermidis; parameters: Minimal inhibitory concentration (MIC) S. epidermidis: unit not given here
Method: CIM 791 is tested for its minimal inhibitory concentration, which is a measure of the growth inhibitory potential of the compound and determined against S. epidermidis by two-fold broth dilution technique.
as §1

[3] = test system: Pseudomonas aeruginosa; experiment: MIC by two-fold broth dilution, P. aeruginosa; settings: Table 5, read-out: Minimal inhibitory concentration (MIC) P. aeruginosa
Method: as §1

MIC ([1]; Table 5, read-out: Minimal inhibitory concentration (MIC) S. mutans) [mg/L]	MIC ([2]; Staphylococcus epidermidis, read-out: MIC against Staphylococcus epidermidis) [mg/L]	Minimal inhibitory concentration (MIC) S. epidermidis ([2]; Table 5)	MIC ([1]; read-out: MIC against Streptococcus mutans) [mg/L]	MIC [3] [mg/L]	Compound	activity against Staphylococcus epidermidis (in words) [2]
1250 (≈ 4.69 mM)	31.5 (≈ 0.118 mM)	31.5			COC(=O)CC/C=C/c1c(O)cc(C(=O)O)cc1O [Oenostacin, 3,5-dihydroxy-4-pent-4′-enoyl-1′-oxymethylbenzoic acid]	strong activity
			625 (≈ 3.67 mM)	1250 (≈ 7.35 mM)	O=C(O)c1cc(O)c(O)c(O)c1 [Gallic acid, gallic acid]	
